{
  "source": "patent US12383624B2",
  "about": "“Cargo delivery system and composition comprising the same” (SEOUL NATIONAL UNIVERSITY R&DB FOUNDATION, priority 2018, dated 2025)",
  "key": {"Tau": {"system": "Tau", "test": "target protein degradation by immunoblotting (Experimental Example 6)", "assay_type": "cell-based, human", "conditions": "24 hours", "experimental": "(§1) In order to evaluate the target proteion degradation efficacy by Examples 14 to 33 according the disclosure, the following experiment was conducted.\n(§2) First, as cell lines primarily expressing the target protein, Human kidney-derived cancer cells, HEK293T (ATCC, CRL-3216), human prostate-derived cancer cells, LNcap (Korean Cell Line Bank, Korean Cell Line Research Foundation, KCLB No. 80018), mouse embryonic fibroblast, MEF (ATCC, SCRC-1008), human cervical cancer cells, HeLa (Korean Cell Line Bank, Korean Cell Line Research Foundation, KCLB No. 10002), human blood-derived cells, K562 (Korean Cell Line Bank, Korean Cell Line Research Foundation, KCLB No. 10243), human blood-derived cells, THP-1 (Korean Cell Line Bank, Korean Cell Line Research Foundation, KCLB No. 40202), human lung-derived cancer cells, A549 (Korean Cell Line Bank, Korean Cell Line Research Foundation, KCLB No. 10185), human breast-derived cancer cells, MCF7 (Korean Cell Line Bank, Korean Cell Line Research Foundation, KCLB No. 30022), human neuroblastoma, SH-SY5Y cell lines (Korean Cell Line Bank, Korean Cell Line Research Foundation, KCLB No. 22266), human pancreatic cancer cells, PANC-1 (Korean Cell Line Bank, Korean Cell Line Research Foundation, KCLB No. 21469) were cultured, respectively, in an incubator maintained at 5% carbon dioxide, using DMEM containing 10% FBS and 1% streptomycin/penicillin, RPMI1640, or MEM medium, and then the respective cells were dispensed in 12-well plate. Additional incubation was performed for 24 hours to ensure that each cell completely fixed to the surface of the plate.\n(§3) In order to confirm whether Compounds A to W of Examples 14 to 33 degrade the target protein respectively, the cultured cells were treated with the compound of each example for 24 hours and then collected.\n(§4) In this case, HEK293T, which is human kidney-derived cancer cells, LNcap, which is human prostate-derived cancer cells, and MEF cell line, which is mouse embryonic fibroblasts, were treated with Example 14 (Compound A). HEK293T, which is human kidney-derived cancer cells, was treated with Example 15 (Compound B). HEK293T cell line, which is human kidney-derived cancer cells, and HeLa cell line, which is cervical-derived cancer cells, were treated with Example 16 (Compound C). HEK293T cell line, which is human kidney-derived cancer cells, was treated with Example 17 (Compound D). K562 cell line, which is human blood-derived cells, was treated with Example 18 (Compound E). HEK293T cell line, which is human kidney-derived cancer cells, was treated with Example 19 (Compound F). THP-1 cell line, which is human blood-derived cells, was treated with Example 20 (Compound G). A549 cell line, which is human lung-derived cancer cells, was treated with Example 21 (Compound H). A549 cell line, which is human lung-derived cancer cells, was treated with Example 22 (Compound I). MCF7 cell line, which is human breast-derived cancer cells, was treated with Example 23 (Compound J). HEK293T cell line, which is […], was treated with Example 24 (Compound L). SH-SY5Y, which is human neuroblastoma, and HeLa cell line, which is cervical-derived cancer cells, were treated with Example 25 (Compound M). THP-1 cell line, which is human blood-derived cells, was treated with Example 26 (Compound P). SH-SY5Y, which is human neuroblastoma, and HeLa cell line, which is cervical-derived cancer cells, were treated with Example 27 (Compound Q). SH-SY5Y, which is human neuroblastoma, and HeLa cell line, which is cervical-derived cancer cells, were treated with Example 28 (Compound R). HeLa cell line, a human cervical-derived cancer cell, was treated with Example 29 (Compound S). SH-SY5Y cell line, which is human neuroblastoma, was treated with Example 30 (Compound T). SH-SY5Y cell line, which is human neuroblastoma, was treated with Example 31 (Compound U). PANC-1 cell line, which is human pancreatic-derived cancer cells, was treated with Example 32 (Compound V). […]"}, "Desmin Mut(L385P)": {"target": "T1, Desmin Mut(L385P) (Homo sapiens, UniProt P17661, L385P)", "T1 construct": "expressed in transfected cells; host or cells: HeLa (Compound S); SH-SY5Y or HeLa (Compounds M, Q, R)", "T1 sequence (P17661 whole entry L385P)": "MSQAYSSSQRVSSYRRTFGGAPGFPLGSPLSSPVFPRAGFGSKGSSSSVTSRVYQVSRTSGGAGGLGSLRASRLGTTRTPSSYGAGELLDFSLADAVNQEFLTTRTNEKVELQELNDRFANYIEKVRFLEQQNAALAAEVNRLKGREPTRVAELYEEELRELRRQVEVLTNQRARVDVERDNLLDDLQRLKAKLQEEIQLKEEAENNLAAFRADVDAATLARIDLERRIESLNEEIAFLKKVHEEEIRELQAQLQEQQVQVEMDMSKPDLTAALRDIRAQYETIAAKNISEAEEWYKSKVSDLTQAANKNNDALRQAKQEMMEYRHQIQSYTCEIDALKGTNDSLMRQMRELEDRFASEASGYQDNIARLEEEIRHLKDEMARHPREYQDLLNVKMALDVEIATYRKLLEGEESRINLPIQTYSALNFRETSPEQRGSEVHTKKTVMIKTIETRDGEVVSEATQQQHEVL", "test": "target protein degradation by immunoblotting (Experimental Example 6)", "assay_type": "cell-based", "conditions": "24 hours", "experimental": "as §1, §2, §3, §4"}, "RIPK2": {"target": "T2, RIPK2 (Homo sapiens, UniProt O43353)", "T2 construct": "as cell lines primarily expressing the target protein; endogenous in cells; host or cells: THP-1", "test": "target protein degradation by immunoblotting (Experimental Example 6)", "assay_type": "cell-based", "conditions": "THP-1 cell line, 24 hours", "experimental": "as §1, §2, §3, §4"}, "Cyclin D1": {"system": "Cyclin D1", "test": "target protein degradation by immunoblotting (Experimental Example 6)", "assay_type": "cell-based, human", "conditions": "A549 cell line, 24 hours", "experimental": "as §1, §2, §3, §4"}, "STAT3": {"target": "T3, STAT3 (Homo sapiens, UniProt P40763)", "T3 construct": "as cell lines primarily expressing the target protein; endogenous in cells; host or cells: A549", "test": "target protein degradation by immunoblotting (Experimental Example 6)", "assay_type": "cell-based", "conditions": "A549 cell line, 24 hours", "experimental": "as §1, §2, §3, §4"}, "p-STAT3": {"target": "T4, p-STAT3 (Homo sapiens, UniProt P40763)", "T4 construct": "endogenous in cells; host or cells: A549", "test": "target protein degradation by immunoblotting (Experimental Example 6)", "assay_type": "cell-based", "conditions": "A549 cell line, 24 hours", "experimental": "as §1, §2, §3, §4"}, "α-synuclein(A53T)": {"target": "T5, α-synuclein(A53T) (Homo sapiens, UniProt P37840, A53T)", "T5 construct": "expressed in transfected cells; host or cells: SH-SY5Y (Compound U); SH-SY5Y or HeLa (Compound M)", "test": "target protein degradation by immunoblotting (Experimental Example 6)", "assay_type": "cell-based", "conditions": "SH-SY5Y cell line, 24 hours", "experimental": "as §1, §2, §3, §4"}, "p62 protein": {"target": "T6, p62 protein (Homo sapiens, UniProt Q13501)", "T6 construct": "endogenous in cells; host or cells: HEK293", "T6 sequence (Q13501 whole entry)": "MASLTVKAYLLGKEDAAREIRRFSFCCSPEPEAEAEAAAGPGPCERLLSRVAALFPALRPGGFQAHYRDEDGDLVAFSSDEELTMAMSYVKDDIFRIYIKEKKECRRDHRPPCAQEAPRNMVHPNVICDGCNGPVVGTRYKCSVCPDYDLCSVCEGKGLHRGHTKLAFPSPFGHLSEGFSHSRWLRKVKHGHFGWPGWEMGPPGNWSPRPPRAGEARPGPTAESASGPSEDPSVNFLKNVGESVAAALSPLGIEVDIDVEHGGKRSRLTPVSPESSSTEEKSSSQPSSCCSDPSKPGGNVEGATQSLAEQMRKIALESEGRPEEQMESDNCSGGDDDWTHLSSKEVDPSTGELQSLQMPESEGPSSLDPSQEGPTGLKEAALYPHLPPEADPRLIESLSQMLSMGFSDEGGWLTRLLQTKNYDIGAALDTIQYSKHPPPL", "test": "oligomerization activity of p62 protein in cultured cells by immunoblotting", "assay_type": "cell-based", "parameters": "dose or concentration left out as unconfirmed", "conditions": "HEK293 cell line, 2 hr, unlike DMSO control", "experimental": "In order to evaluate the oligomerization activity efficacy of p62 protein according to examples of the disclosure, HEK293 cell line, which is human embryonic kidney-derived cell, was collected. The cell lines were treated with Example 3 (PBA 1104), Example 4 (PBA 1105), Example 5 (Anle F105), Example 8 (PHTPP 1304), Example 11 (BTA-1 1104), Example 12 (Curcumin 1204), Example 1 (ATC 1105), Example 2 (ATC 1104), Example 10 (Resv 1105), Example 13 (Rilu 204) according to the examples, YTK-1105 compound, which is an autophagy targeting ligand compound as a comparative example, and DMSO as a control […], 2 hr, respectively.\nIn order to measure intracellular p62 protein activation and oligomerization in cells according to the treatment with these compounds, the respective cells were dispensed into a 100 pi dish. The cells were collected after further culturing for 24 hours so that the cells were completely attached to the surface of the plate. 100 μl of lysis buffer (20 mM Tris (pH 7.4), 150 mM NaCl, 1% Triton X-100, 2 mM NaF, 2 mM EDTA, 2 mM beta-glycerophosphate, 5 mM sodium orthovanadate, 1 mM PMSF, leupeptin, aproteinin) were injected into each sample and the cells were lysed. Based on the measured total protein concentration, each sample was treated with test compounds at room temperature for 2 hours, and then a sample buffer was added and allowed to react at 95° C. for 10 minutes. […]"}, "[1]": {"conditions": "SH-SY5Y and HeLa cell lines treated"}},
  "data": [
    {"smiles": "O=C(CCCc1ccccc1)NCCOCCOCCOCCOCCOCCNCc1ccc(OCc2ccccc2)c(OCc2ccccc2)c1", "note": "[Example 27, N-(1-(3,4-bis(benzyloxy)phenyl)-5,8,11,14,17-pentaoxa-2-azanonadecan-19-yl)-4-phenylbutanamide]", "values": [
      {"measurement": "degradation of target protein Tau (decrease in level vs Control)", "setting": "Tau; [1]", "value": "can be degraded"},
      {"measurement": "degradation of target protein Desmin Mut(L385P) (decrease in level vs Control)", "setting": "Desmin Mut(L385P); [1]", "value": "can be degraded"}
    ]},
    {"smiles": "CC(C)(C)S(=O)(=O)c1cc2c(Nc3ccc4scnc4c3)ncnc2cc1OCCNCCOCCOCCOCCOCCOCCNC[C@@H](O)COc1ccc(OCc2ccc(F)cc2)c(OCc2ccc(F)cc2)c1", "note": "[Example 26, (R)-1-((4-(benzo[d]thiazol-5-ylamino)-6-(tert-butylsulfonyl)quinazolin-7-yl)oxy)-24-(3,4-bis((4-fluorobenzyl)oxy)phenoxy)-6,9,12,15,18-pentaoxa-3,21-diazatetracosan-23-ol]", "values": [
      {"measurement": "degradation of target protein RIPK2 (decrease in level vs Control)", "setting": "RIPK2", "value": "can be degraded"}
    ]},
    {"smiles": "NC(=O)CC[C@H](NC(=O)[C@@H]1CC[C@@H]2CCN(C(=O)CCCOCCOCCOCCOCCNCc3ccc(OCc4ccccc4)c(OCc4ccccc4)c3)C[C@H](NC(=O)c3cc4cc(C(F)(F)P(=O)(O)O)ccc4[nH]3)C(=O)N21)C(=O)NC(c1ccccc1)c1ccccc1", "note": "[Example 22, ((2-(((5S,8S,10aR)-8-(((S)-5-amino-1-(benzhydrylamino)-1,5-dioxopentan-2-yl)carbamoyl)-3-(1-(3,4-bis(benzyloxy)phenyl)-5,8,11,14-tetraoxa-2-azaoctadecan-18-oyl)-6-oxodecahydropyrrolo[1,2-a][1,5]diazocin-5-yl)carbamoyl)-1H-indol-5-yl)difluoromethyl)phosphonic acid]", "values": [
      {"measurement": "degradation of target protein Cyclin D1 (decrease in level vs Control)", "setting": "Cyclin D1", "value": "can be degraded"},
      {"measurement": "degradation of target protein STAT3 (decrease in level vs Control)", "setting": "STAT3", "value": "can be degraded"},
      {"measurement": "degradation of target protein p-STAT3 (decrease in level vs Control)", "setting": "p-STAT3", "value": "can be degraded"}
    ]},
    {"smiles": "NC(=O)CC[C@H](NC(=O)[C@@H]1CC[C@@H]2CCN(C(=O)CCCOCCOCCOCCOCCNC[C@@H](O)COc3ccc(OCc4ccc(F)cc4)c(OCc4ccc(F)cc4)c3)C[C@H](NC(=O)c3cc4cc(C(F)(F)P(=O)(O)O)ccc4[nH]3)C(=O)N21)C(=O)NC(c1ccccc1)c1ccccc1", "note": "[Example 21, ((2-(((5S,8S,10aR)-8-(((S)-5-amino-1-(benzhydrylamino)-1,5-dioxopentan-2-yl)carbamoyl)-3-((R)-1-(3,4-bis((4-fluorobenzyl)oxy)phenoxy)-2-hydroxy-7,10,13,16-tetraoxa-4-azaicosan-20-oyl)-6-oxodecahydropyrrolo[1,2-a][1,5]diazocin-5-yl)carbamoyl)-1H-indol-5-yl)difluoromethyl)phosphonic acid]", "values": [
      {"measurement": "degradation of target protein Cyclin D1 (decrease in level vs Control)", "setting": "Cyclin D1", "value": "can be degraded"},
      {"measurement": "degradation of target protein STAT3 (decrease in level vs Control)", "setting": "STAT3", "value": "can be degraded"},
      {"measurement": "degradation of target protein p-STAT3 (decrease in level vs Control)", "setting": "p-STAT3", "value": "can be degraded"}
    ]},
    {"smiles": "O=C(CCCc1ccccc1)NCCOCCOCCOCCOCCOCCOCCOCCNCc1ccc(OCc2ccccc2)c(OCc2ccccc2)c1", "note": "[Example 28, N-(1-(3,4-bis(benzyloxy)phenyl)-5,8,11,14,17,20,23-heptaoxa-2-azapentacosan-25-yl)-4-phenylbutanamide]", "values": [
      {"measurement": "degradation of target protein Tau (decrease in level vs Control)", "setting": "Tau; [1]", "value": "can be degraded"},
      {"measurement": "degradation of target protein Desmin Mut(L385P) (decrease in level vs Control)", "setting": "Desmin Mut(L385P); [1]", "value": "can be degraded"}
    ]},
    {"smiles": "CN(CCOCCOCCOCCNCc1ccc(OCc2ccccc2)c(OCc2ccccc2)c1)c1ccc2nc3ccc(=[N+](C)C)cc-3sc2c1", "note": "[Example 31, N-(7-((1-(3,4-bis(benzyloxy)phenyl)-5,8,11-trioxa-2-azatridecan-13-yl) (methyl)amino)-3H-phenothiazin-3-ylidene)-N-methylmethanaminium 2,2,2-trifluoroacetate]", "values": [
      {"measurement": "degradation of target protein Tau (decrease in level vs Control)", "setting": "Tau; SH-SY5Y cell line", "value": "can be degraded"},
      {"measurement": "degradation of target protein α-syn. Mut(A53T) (decrease in level vs Control)", "setting": "α-synuclein(A53T)", "value": "can be degraded"}
    ]},
    {"smiles": "CC(C)(C)S(=O)(=O)c1cc2c(Nc3ccc4scnc4c3)ncnc2cc1OCCNCCOCCOCCNCc1cccc(OCc2ccccc2)c1", "note": "[Example 20, N-(7-((1-(3-(benzyloxy)phenyl)-5,8-dioxa-2,11-diazatridecan-13-yl)oxy)-6-(tert-butylsulfonyl)quinazolin-4-yl)benzo[d]thiazol-5-amine]", "values": [
      {"measurement": "degradation of target protein RIPK2 (decrease in level vs Control)", "setting": "RIPK2", "value": "can be degraded"}
    ]},
    {"smiles": "O=C(CCCc1ccccc1)NCCOCCOCCOCCNC[C@@H](O)COc1ccc(OCc2ccc(F)cc2)c(OCc2ccc(F)cc2)c1", "note": "[Example 29, (R)—N-(15-(3,4-bis((4-fluorobenzyl)oxy)phenoxy)-14-hydroxy-3,6,9-trioxa-12-azapentadecyl)-4-phenylbutanamide]", "values": [
      {"measurement": "degradation of target protein Desmin Mut(L385P) (decrease in level vs Control)", "setting": "Desmin Mut(L385P); HeLa cell line", "value": "can be degraded"}
    ]},
    {"smiles": "OCCNCc1ccc(OCc2ccccc2)c(OCc2ccccc2)c1", "note": "[YTK-1105]", "values": [
      {"measurement": "monomer of p62 proteins", "setting": "p62 protein", "value": "decrease"},
      {"measurement": "p62 oligomers and high-molecular aggregates", "setting": "p62 protein", "value": "increase"}
    ]}
  ]
}
